Measurements taken from patent publication US20230130102A1, “Na/K-ATPase LIGANDS AND USE THEREOF FOR TREATMENT OF CANCER” (Marshall University Research Corporation, priority 2019, published 2023).
“Also recorded” adds a separate entry of the source.

How the values were obtained:
[1] = tested on: EGF or dopamine induced ERK activation; assay: EGF- or dopamine-induced ERK activation in LLC-PK1 cells; format: cell-based, pig
Method: Western blot, Immunoprecipitation and Immunostaining. Cells were grown to 100% confluency and Western blot were performed as described before. Images were quantified with ImageJ software from NIH. Immunoprecipitation studies were performed as described before. α1 NKA immunostaining was performed by growing cells on sterilized coverslips in 6 well tissue culture plates and permeabilization/fixation with ice-cold methanol followed by blocking with 5% horse serum and 0.1% Triton X-100 in 1× Phosphate buffered saline (PBS) for 30 minutes. Coverslips were then stained with an anti-α1 NKA antibody (Millipore, Cat #05-369) at 1:100 dilution in 1% BSA (Bovine Serum Albumin) containing 1×PBS solution for overnight. Next day after three washes, coverslips were stained with Alexa Fluor 488 conjugated anti-mouse secondary antibody (Thermo-Fisher) for 1 hour, washed extensively and then imaged using a fluorescent microscope with GFP filter or confocal microscope (LEICA-DMIRE2). E-cadherin and occludin immunostaining was performed in a similar manner. Phospho-Src, phospho ERK1/2 immunostaining were performed as described before and images were taken with a LEICA DMIRE2 confocal microscope. […]

α1 NKA = biological target: T1, α1 NKA (Homo sapiens, UniProt P05023); assay: α1 NKA endocytosis (biotinylation assay) in subclone 4; format: cell-based; settings: xenograft derived clone 4
T1 construct: endogenous in cells; host or cells: subclone 4 (from DU145 α1 NKA knockdown xenograft)
Method: α1 NKA endocytosis assay. Endocytosis assay was performed as described before.

subclone 2 spheroids = assay: MMP secretion by spheroids (Western blot of conditioned media); format: cell-based, human
Method: (§1) For drug treatment, compound was diluted into media, from stock solution. For MMP secretion, conditioned media for 3 days were collected from top of matrix and assessed for MMP secretion by Western blot using Matrix Remodeling Antibody Sampler kit from Cell Signaling Technology (Cat #73959).

PC3 cells [2] = assay: 3D culture spheroid invasion and growth, PC3; format: cell-based, human
Method: (§2) 3D culture-spheroid invasion assay. Cells were trypsinized gently (0.05% Trypsin-EDTA) and diluted at 1000 cells in 20 μl of full serum media for DU145 and C4-2 derived sub-clones or 500 cells in 20 ul for PC3 cells and allowed to form spheroids using hanging drop technique for 3 days, as described previously. Generated spheroids were then embedded into 3D matrix (not yet solidified at the time of experiment), as described in the previous section, on top of a 1% solidified agarose coating in 48 well plates. Spheroids were monitored from day 1 to different time points and images were taken using a phase contrast microscope fitted with camera, at same settings. Spheroid growth or invasion area was quantified using ImageJ software from NIH. The following formulas were used for quantitation of spheroids:
Spheroid invasion=(Invasion area/Spheroid area)*100
(§3) Spheroid growth=(Spheroid area at Day 3 or 7-Spheroid area at 16 hours)/Spheroid area at 16 hours
as §1

PC3 cells [3] = assay: Spheroid aggregation in ultralow attachment plates, PC3; format: cell-based, human
Method: Spheroid aggregation in ultralow attachment plates. 5000 cells were plated in a 6 well ultralow attachment plate from Corning and allowed to form spheroids spontaneously for a week. Cell aggregates were then immunostained for E-cadherin expression using a monoclonal anti-E-cadherin antibody (Santacruz Biotechnology, Catalogue No.sc-71008), followed by Alexa-Fluor 488 anti-mouse secondary antibody (Thermo-Fisher).

parental C4-2 cells = assay: 3D culture spheroid growth, C4-2; format: cell-based, human; settings: parental C4-2, 0.1-2 μM, Day 1-7
Method: as §2, §3

A425P and Y260A cells = assay: basal ERK activation in Src binding mutant Y260A and A425P cells; format: cell-based, pig
Method: Characterization of MB5 activity on the NKA receptor function known as the NKA/Src binary receptor mechanism was conducted in a pig kidney epithelial cells (LLC-PK1)-based platform using immunostaining and Western blot analyses. […] The change of NKA conformation that occurs upon binding of agonists such as ouabain, results in the release and activation of the Src kinase domain from the “Naktide” site of NKA CD3, while the other interaction (constitutive) persists between NKA CD2 and the SH2 domain of Src. […] In LLC-PK1-derived cells with low NKA receptor constitutive activity due to substantial reduction (over 80%) of α1 NKA expression by siRNA (PY17 cells), increased basal Src and ERK activity is observed due to the abnormally high amount of Src kinase that remains in an active conformation. Increased basal Src and ERK activity is also observed in LLC-PK1-derived cells with reduced NKA receptor constitutive activity that result from mutations in either domain of interaction with Src without alteration of the ion pumping activity (e.g. A425P on the Naktide sequence, or Y260A on the CD2 domain).

[4] = tested on: subclone 4 and 2 xenograft; assay: tumor xenograft of aggressive subclones 4 and 2 in NOD/SCID mice; format: in vivo, mouse
Method: Mice studies. Animal protocols were approved by an Institutional Animal Care and Use Committee (IACUC) according to NIH guidelines. Tumor xenografts were established by subcutaneous injection of 5×10^6 cancer cells into the left and right flanks of 10-week-old male NOD/SCID mice (Charles River). Tumor length (L) and width (W) were measured with calipers weekly and tumor volume was estimated as V=(L×W^2)/2. After the tumor volumes reached approximately 100 mm^3, mice were sacrificed and tumors were harvested. Half of the tumors were used for protein extraction and the other half were digested with collagenase I solution (SIGMA) to isolate cancer cells.
For MB5 treatment, after tumor volume reached approximately 100 mm^3, mice were injected peritoneally with DMSO or MB5 at 20 mg/kg or 10 mg/kg daily and further monitored for tumor growth weekly. At the end of treatment period (about 2-3 weeks), tumors were harvested and tumor lysates were analyzed for protein expression by Western blot.
The therapeutic potential of MB5 in a tumor xenograft model was first tested by injecting DU145 or corresponding α1 knockdown cells (KD) into the right or left flank of 10-week-old NOD/SCID mice. The tumor growth was monitored twice weekly. […] Next, it was determined whether MB5 could decrease tumor growth of highly aggressive subclones derived from DU145. […]

P450 enzymes = assay: metabolism by P450 enzymes; format: in vitro ADME
DU145 derived subclones = assay: Western blot / immunostaining of EMT markers, Src/FAK activation and proliferation markers in DU145 derived subclones; format: cell-based, human; settings: subclone 2 cells, 1 μM, 24 hours

SMILES: O=c1c2cccc(O)c2oc2c(O)c(O)ccc12 [MB5]
- EGF-induced ERK activation [1]: did not inhibit; also recorded: failed to inhibit; also recorded: did not affect EGF-induced ERK activation
- dopamine-induced ERK activation [1]: did not inhibit; also recorded: failed to inhibit; also recorded: did not affect dopamine-induced activation of ERK
- α1 NKA endocytosis (α1 NKA): abolished α1 NKA endocytosis; also recorded: significantly reduced α1 NKA endocytosis
- MMP2 and 9 secretion (subclone 2 spheroids): significantly reduced MMP2 and 9 secretions
- inhibition of spheroid size (PC3 cells [2]; PC3, 0.1 μM): about 25%
- inhibition of spheroid size (PC3 cells [2]; PC3, 1 μM): ~50%
- spheroid size / growth (PC3 cells [2]; PC3 spheroids): reduced spheroid invasion and growth; also recorded: reduced spheroid size in a concentration-dependent manner
- spheroid invasion (PC3 cells [2]; PC3 spheroids, day 7): reduced spheroid invasion; also recorded: suppressed spheroid invasion; also recorded: reduced both invasion
- cell aggregation (PC3 cells [3]; PC3, ultralow attachment plates): increased cell aggregation in a concentration-dependent manner
- E-cadherin expression (PC3 cells [3]; PC3 aggregates, immunostaining): significantly increased E-cadherin expression
- spheroid growth (parental C4-2 cells): did not significantly affect spheroid growth
- basal ERK phosphorylation (A425P and Y260A cells): did not reduce high levels of ERK phosphorylation
- tumor growth ([4]; 10 mg/kg, subclones 4 and 2): significantly reduced tumor growth from both cell types; also recorded: significantly reduced xenografted tumor growth
- α1 NKA and E-cadherin expression in tumor lysates ([4]; subclone 2 tumor lysates, Western blot): increasing α1 NKA and E-cadherin expression
- metabolism by P450 enzymes (P450 enzymes): not metabolized significantly
- E-cadherin and occludin expression (immunostaining) (DU145 derived subclones): Increase in E-cadherin and occludin expression
